{"source": "patent US9295255B2", "about": "“Use of dithiine derivatives in crop protection and the protection of materials” (Bayer Intellectual Property GmbH, priority 2010, dated 2016)", "key": {"Alternaria solani": {"system": "Alternaria solani", "experiment": "Alternaria test (tomato)/protective", "format": "in vivo", "details": "young tomato plants sprayed, 1500 ppm, protective; evaluation 7 days following inoculation; 0% = control, 100% = no infestation"}, "Phytophthora infestans": {"system": "Phytophthora infestans", "format": "in vivo", "details": "young tomato plants sprayed, 1500 ppm, protective; evaluation 7 days following inoculation; 0% = control, 100% = no infestation"}, "[1]": {"experiment": "log P determination by HPLC on reversed-phase column (EEC Directive 79/831 Annex V.A8)", "format": "physicochemical", "details": "reversed-phase C18 HPLC column, reversed-phase C 18, 43° C., acidic range pH 2.7, 0.1% aqueous formic acid/acetonitrile", "procedure": "The log P values reported in the preparation examples and tables above are determined in accordance with EEC Directive 79/831 Annex V.A8 by means of HPLC (High Performance Liquid Chromatography) on a reversed-phase column (C 18). Temperature: 43° C.\nThe determination with the LC-MS in the acidic range takes place at a pH of 2.7 using 0.1% aqueous formic acid and acetonitrile (containing 0.1% formic acid) as eluents: linear gradient from 10% acetonitrile to 95% acetonitrile.\nCalibration takes place using unbranched alkan-2-ones (having 3 to 16 carbon atoms) of which the log P values are known (log P values determined on the basis of the retention times, by linear interpolation between two successive alkanones)."}, "Botrytis cinerea": {"system": "Botrytis cinerea", "experiment": "Botrytis test (bean)/protective", "format": "in vivo", "details": "young bean plants sprayed, 500 ppm, protective; size of infestation spots 2 days following inoculation; 0% = control, 100% = no infestation", "text": "An appropriate preparation of active compound is produced by mixing 1 part by weight of active compound with the stated amounts of solvent and emulsifier and diluting the concentrate with water to the desired concentration. To test for protective activity, young plants are sprayed with the preparation of active compound at the stated application rate. After the spray coating has dried on, 2 small pieces of agar on which Botrytis cinerea is growing are placed on each leaf. The inoculated plants are placed in a darkened chamber at approximately 20° C. and 100% relative humidity. After 2 clays following inoculation, the size of the infestation spots on the leaves is evaluated. Here, 0% denotes an efficacy which corresponds to that of the control, whereas an efficacy of 100% means that no infestation is observed."}, "Plasmopara viticola": {"system": "Plasmopara viticola", "experiment": "Plasmopara test (grapevine)/protective", "format": "in vivo", "details": "young grapevine plants sprayed, 250 ppm, protective; evaluation 6 days following inoculation; 0% = control, 100% = no infestation", "text": "(§1) An appropriate preparation of active compound is produced by mixing 1 part by weight of active compound with the stated amounts of solvent and emulsifier and diluting the concentrate with water to the desired concentration. To test for protective activity, young plants are sprayed with the preparation of active compound at the stated application rate. After the spray coating has dried on, the plants are inoculated with an aqueous spore suspension of Plasmopara viticola and then spend 1 day in an incubation cabin at approximately 20° C. and 100% relative humidity. Subsequently the plants are placed for 4 days in a greenhouse at approximately 21° C. and approximately 90% humidity. The plants are then moistened and placed in an incubation cabin for 1 day. After 6 days following inoculation, evaluation takes place. Here, 0% denotes an efficacy which corresponds to that of the control, whereas an efficacy of 100% means that no infestation is observed."}, "Venturia inaequalis": {"system": "Venturia inaequalis", "experiment": "Venturia test (apple)/protective", "format": "in vivo", "details": "young apple plants sprayed, 250 ppm, protective; evaluation 10 days following inoculation; 0% = control, 100% = no infestation", "text": "as §1, with “conidia” for “spore”, “the causative organism of apple scab, Venturia inaequalis,” for “Plasmopara viticola”, “placed” for “placed for 4 days”, “humidity.” for “humidity. The plants are then moistened and placed in an incubation cabin for 1 day.”, “10 clays” for “6 days”"}}}
{"smiles": "Cc1c(C)c(=O)c2sc(C#N)c(C#N)sc=2c1=O", "note": "[Compound 43, 6,7-dimethyl-5,8-dioxo-5,8-dihydro-1,4-benzodithiine-2,3-dicarbonitrile]", "values": [{"measurement": "Efficacy in %", "setting": "Alternaria solani", "value": 100, "unit": "%"}]}
{"smiles": "COc1c(Cl)c(=O)c2sc(C#N)c(C#N)sc=2c1=O", "note": "[Compound 44, 6-chloro-7-methoxy-5,8-dioxo-5,8-dihydro-1,4-benzodithiine-2,3-dicarbonitrile]", "values": [{"measurement": "Efficacy in %", "setting": "Alternaria solani", "value": 100, "unit": "%"}]}
{"smiles": "CC(C)(C)c1cc(=O)c2sc(C#N)c(C#N)sc=2c1=O", "note": "[Compound 45, 6-tert-butyl-5,8-dioxo-5,8-dihydro-1,4-benzodithiine-2,3-dicarbonitrile]", "values": [{"measurement": "Efficacy in %", "setting": "Phytophthora infestans", "value": 78, "unit": "%"}]}
{"smiles": "Cc1c(C)c(O)c2c(c1O)SC(C#N)=C(C#N)S2", "note": "[Compound 47, 5,8-dihydroxy-6,7-dimethyl-1,4-benzodithiine-2,3-dicarbonitrile]", "values": [{"measurement": "chromatographic logP", "setting": "[1]", "value": 2.26}, {"measurement": "Efficacy in %", "setting": "Alternaria solani", "value": 100, "unit": "%"}, {"measurement": "Efficacy in %", "setting": "Botrytis cinerea", "value": 100, "unit": "%"}, {"measurement": "Efficacy in %", "setting": "Phytophthora infestans", "value": 89, "unit": "%"}, {"measurement": "Efficacy in %", "setting": "Plasmopara viticola", "value": 92, "unit": "%"}, {"measurement": "Efficacy in %", "setting": "Venturia inaequalis", "value": 100, "unit": "%"}]}
{"smiles": "COc1c(O)c2c(c(O)c1Cl)SC(C#N)=C(C#N)S2", "note": "[Compound 48, 6-chloro-5,8-dihydroxy-7-methoxy-1,4-benzodithiine-2,3-dicarbonitrile]", "values": [{"measurement": "chromatographic logP", "setting": "[1]", "value": 2.19}, {"measurement": "Efficacy in %", "setting": "Alternaria solani", "value": 100, "unit": "%"}, {"measurement": "Efficacy in %", "setting": "Botrytis cinerea", "value": 97, "unit": "%"}, {"measurement": "Efficacy in %", "setting": "Phytophthora infestans", "value": 94, "unit": "%"}, {"measurement": "Efficacy in %", "setting": "Plasmopara viticola", "value": 90, "unit": "%"}, {"measurement": "Efficacy in %", "setting": "Venturia inaequalis", "value": 100, "unit": "%"}]}
{"smiles": "CC(C)(C)c1cc(O)c2c(c1O)SC(C#N)=C(C#N)S2", "note": "[Compound 49, 6-tert-butyl-5,8-dihydroxy-1,4-benzodithiine-2,3-dicarbonitrile]", "values": [{"measurement": "chromatographic logP", "setting": "[1]", "value": 2.95}, {"measurement": "Efficacy in %", "setting": "Alternaria solani", "value": 100, "unit": "%"}, {"measurement": "Efficacy in %", "setting": "Botrytis cinerea", "value": 96, "unit": "%"}, {"measurement": "Efficacy in %", "setting": "Phytophthora infestans", "value": 94, "unit": "%"}, {"measurement": "Efficacy in %", "setting": "Plasmopara viticola", "value": 92, "unit": "%"}, {"measurement": "Efficacy in %", "setting": "Venturia inaequalis", "value": 100, "unit": "%"}]}
